# The source made the active and inactive calls. The rule behind the calls is not given here.
# System: CCRIS mutagenicity, Ames/micronucleus/aberration tests
# Test: CCRIS mutagenicity studies
# [1] = Test System: AMES SALMONELLA TYPHIMURIUM, Strain/Indicator: TA1535, Metabolic Activation: NONE, Method: PREINCUBATION
# [2] = Test System: AMES SALMONELLA TYPHIMURIUM, Strain/Indicator: TA100, Metabolic Activation: NONE, Method: PREINCUBATION
# [3] = Test System: AMES SALMONELLA TYPHIMURIUM, Strain/Indicator: TA100, Metabolic Activation: NONE, Method: STANDARD PLATE
# [4] = Test System: AMES SALMONELLA TYPHIMURIUM, Strain/Indicator: TA98, Metabolic Activation: NONE, Method: STANDARD PLATE
# [5] = Test System: AMES SALMONELLA TYPHIMURIUM, Strain/Indicator: TA98, Metabolic Activation: RAT, LIVER, S-9, AROCLOR 1254, Method: STANDARD PLATE
# [6] = Test System: AMES SALMONELLA TYPHIMURIUM, Strain/Indicator: TA1537, Metabolic Activation: NONE, Method: STANDARD PLATE
smiles,measurement,setting,value
C=CCCl,mutagenic call,"End Point: IN VITRO CHROMOSOMAL ABERRATIONS, Test System: CHL CELLS, Metabolic Activation: RAT, LIVER, S-9, SODIUM PHENOBARBITAL AND 5,6-BENZOFLAVONE",active; positive (structural changes); authors report equivocal results for ploidy chang
same,mutagenic call,"Test System: AMES SALMONELLA TYPHIMURIUM, Strain/Indicator: TA100, Metabolic Activation: NONE, Method: DESICCATOR",active; positive
same,mutagenic call,"Test System: AMES SALMONELLA TYPHIMURIUM, Strain/Indicator: TA100, Metabolic Activation: NONE, Method: PREINCUBATION (20-180 MIN)",inactive; negative
same,mutagenic call,"Test System: AMES SALMONELLA TYPHIMURIUM, Strain/Indicator: TA100, Metabolic Activation: RAT, LIVER, S-9, AROCLOR 1254 (4 OR 12 MG/ML PROTEIN), Method: PREINCUBATION (20 OR 60 MIN)",inactive; negative
same,mutagenic call,"Test System: AMES SALMONELLA TYPHIMURIUM, Strain/Indicator: TA100, Metabolic Activation: RAT, LIVER, S-9, AROCLOR 1254 (4 OR 12 MG/ML PROTEIN), Method: PREINCUBATION (120 OR 180 MIN)",active; positive
same,mutagenic call,"Test System: AMES SALMONELLA TYPHIMURIUM, Strain/Indicator: TA100, Metabolic Activation: RAT, LIVER, S-9, AROCLOR 1254, SERUM ALBUMIN (4 MG/ML) (8 MG/ML PROTEIN), Method: PREINCUBATION (120 MIN)",inactive; negative
same,mutagenic call,"Test System: AMES SALMONELLA TYPHIMURIUM, Strain/Indicator: TA100, Metabolic Activation: RAT, LIVER, S-9, AROCLOR 1254, Method: DESICCATOR",active; positive
same,mutagenic call,"Test System: AMES SALMONELLA TYPHIMURIUM, Strain/Indicator: TA102, Metabolic Activation: S-9, Method: STANDARD PLATE",inactive; negative
same,mutagenic call,"Test System: AMES SALMONELLA TYPHIMURIUM, Strain/Indicator: TA1535, Metabolic Activation: NONE, Method: DESICCATOR",active; positive
same,mutagenic call,[1],active; positive
same,mutagenic call,"Test System: AMES SALMONELLA TYPHIMURIUM, Strain/Indicator: TA1535, Metabolic Activation: RAT, LIVER, S-9, AROCLOR 1254, Method: DESICCATOR",active; positive
same,mutagenic call,"Test System: AMES SALMONELLA TYPHIMURIUM, Strain/Indicator: TA1535, Metabolic Activation: RAT, LIVER, S-9, AROCLOR 1254, Method: PREINCUBATION",active; positive
same,mutagenic call,"Test System: AMES SALMONELLA TYPHIMURIUM, Strain/Indicator: TA2638, Metabolic Activation: S-9, Method: STANDARD PLATE",inactive; negative
same,mutagenic call,"Test System: Ames Salmonella typhimurium, Strain/Indicator: TA98, Metabolic Activation: Rat, Liver, S9, Sodium phenobarbital and 5,6-benzoflavone (10%), Method: Preincubation",inactive; negative
same,mutagenic call,"Test System: Ames Salmonella typhimurium, Strain/Indicator: TA100, Metabolic Activation: Rat, Liver, S9, Sodium phenobarbital and 5,6-benzoflavone (10%), Method: Preincubation",inactive; negative
same,mutagenic call,"Test System: Ames Salmonella typhimurium, Strain/Indicator: TA1537, Metabolic Activation: None, Method: Preincubation",inactive; negative
same,mutagenic call,"Test System: Ames Salmonella typhimurium, Strain/Indicator: TA1537, Metabolic Activation: Rat, Liver, S9, Sodium phenobarbital and 5,6-benzoflavone (10%), Method: Preincubation",inactive; negative
same,mutagenic call,"Test System: Ames Salmonella typhimurium, Strain/Indicator: YG7108, Metabolic Activation: None, Method: Standard plate",inactive; positive (negative when allyl chloride dissolved in water)
same,mutagenic call,"Test System: Ames Salmonella typhimurium, Strain/Indicator: YG7108, Metabolic Activation: Rat, Liver, S-9, Phenobarbital/beta-naphthoflavone, Method: Standard plate",active; positive
same,mutagenic call,"Test System: Ames Salmonella typhimurium, Strain/Indicator: YG7108pin3ERb5, Metabolic Activation: None, Method: Standard plate",active; positive
same,mutagenic call,"Test System: E. COLI, Strain/Indicator: WP2 (PKM101), Metabolic Activation: S-9, Method: STANDARD PLATE",inactive; negative
same,mutagenic call,"Test System: E. COLI, Strain/Indicator: WP2 UVRA (PKM101), Metabolic Activation: S-9, Method: STANDARD PLATE",inactive; negative
OCCCCO,mutagenic call,"Test System: AMES SALMONELLA TYPHIMURIUM, Strain/Indicator: TA97, Metabolic Activation: HAMSTER, LIVER, S-9, AROCLOR 1254 (10 OR 30%), Method: PREINCUBATION",inactive; negative
same,mutagenic call,"Test System: AMES SALMONELLA TYPHIMURIUM, Strain/Indicator: TA97, Metabolic Activation: NONE, Method: PREINCUBATION",inactive; negative
same,mutagenic call,"Test System: AMES SALMONELLA TYPHIMURIUM, Strain/Indicator: TA97, Metabolic Activation: RAT, LIVER, S-9, AROCLOR 1254 (10 OR 30%), Method: PREINCUBATION",inactive; negative
same,mutagenic call,"Test System: AMES SALMONELLA TYPHIMURIUM, Strain/Indicator: TA98, Metabolic Activation: HAMSTER, LIVER, S-9, AROCLOR 1254 (10 OR 30%), Method: PREINCUBATION",inactive; negative
same,mutagenic call,"Test System: AMES SALMONELLA TYPHIMURIUM, Strain/Indicator: TA98, Metabolic Activation: NONE, Method: PREINCUBATION",inactive; negative
same,mutagenic call,"Test System: AMES SALMONELLA TYPHIMURIUM, Strain/Indicator: TA98, Metabolic Activation: RAT, LIVER, S-9, AROCLOR 1254 (10 OR 30%), Method: PREINCUBATION",inactive; negative
same,mutagenic call,"Test System: AMES SALMONELLA TYPHIMURIUM, Strain/Indicator: TA100, Metabolic Activation: HAMSTER, LIVER, S-9, AROCLOR 1254 (10%), Method: PREINCUBATION",inactive; negative
same,mutagenic call,"Test System: AMES SALMONELLA TYPHIMURIUM, Strain/Indicator: TA100, Metabolic Activation: HAMSTER, LIVER, S-9, AROCLOR 1254 (30%), Method: PREINCUBATION",inactive; negative
same,mutagenic call,[2],inactive; negative
same,mutagenic call,"Test System: AMES SALMONELLA TYPHIMURIUM, Strain/Indicator: TA100, Metabolic Activation: RAT, LIVER, S-9, AROCLOR 1254 (10 OR 30%), Method: PREINCUBATION",inactive; negative
same,mutagenic call,"Test System: AMES SALMONELLA TYPHIMURIUM, Strain/Indicator: TA1535, Metabolic Activation: HAMSTER, LIVER, S-9, AROCLOR 1254 (10 OR 30%), Method: PREINCUBATION",inactive; negative
same,mutagenic call,[1],inactive; negative
same,mutagenic call,"Test System: AMES SALMONELLA TYPHIMURIUM, Strain/Indicator: TA1535, Metabolic Activation: RAT, LIVER, S-9, AROCLOR 1254 (10 OR 30%), Method: PREINCUBATION",inactive; negative
O=C1C=C(CCl)CO1,mutagenic call,[3],active; positive
O=C1OCC(C(Cl)Cl)=C1Cl,mutagenic call,[4],inactive; negative
same,mutagenic call,[5],inactive; negative
same,mutagenic call,"Test System: AMES SALMONELLA TYPHIMURIUM, Strain/Indicator: TA102, Metabolic Activation: NONE, Method: STANDARD PLATE",active; positive
same,mutagenic call,"Test System: AMES SALMONELLA TYPHIMURIUM, Strain/Indicator: TA102, Metabolic Activation: RAT, LIVER, S-9, AROCLOR 1254, Method: STANDARD PLATE",inactive; negative
II,mutagenic call,"End Point: IN VITRO CHROMOSOMAL ABERRATIONS, Test System: SYRIAN HAMSTER EMBRYO (SHE) CELLS, Metabolic Activation: NONE",active; positive (structural changes)
COc1cccc(CN2[C@@H]3c4ccccc4-c4ccccc4[C@@H]32)c1 (some centres not stated),mutagenic call,[3],active; positive
C1COCCOCCOCCOCCOCCOCCO1,mutagenic call,[4],inactive; negative
same,mutagenic call,[5],inactive; negative
same,mutagenic call,[3],inactive; negative
same,mutagenic call,"Test System: AMES SALMONELLA TYPHIMURIUM, Strain/Indicator: TA100, Metabolic Activation: RAT, LIVER, S-9, AROCLOR 1254, Method: STANDARD PLATE",inactive; negative
same,mutagenic call,"Test System: AMES SALMONELLA TYPHIMURIUM, Strain/Indicator: TA1530, Metabolic Activation: NONE, Method: STANDARD PLATE",inactive; negative
same,mutagenic call,"Test System: AMES SALMONELLA TYPHIMURIUM, Strain/Indicator: TA1530, Metabolic Activation: RAT, LIVER, S-9, AROCLOR 1254, Method: STANDARD PLATE",inactive; negative
same,mutagenic call,[6],inactive; negative
same,mutagenic call,"Test System: AMES SALMONELLA TYPHIMURIUM, Strain/Indicator: TA1537, Metabolic Activation: RAT, LIVER, S-9, AROCLOR 1254, Method: STANDARD PLATE",inactive; negative
c1ccc2c(c1)cc1sc3cccc4ccc2c1c43,mutagenic call,[4],inactive; negative
same,mutagenic call,"Test System: AMES SALMONELLA TYPHIMURIUM, Strain/Indicator: TA98, Metabolic Activation: RAT, LIVER, S-9, AROCLOR 1254 (10%), Method: STANDARD PLATE",active; positive
same,mutagenic call,[3],inactive; negative
same,mutagenic call,"Test System: AMES SALMONELLA TYPHIMURIUM, Strain/Indicator: TA100, Metabolic Activation: RAT, LIVER, S-9, AROCLOR 1254 (10%), Method: STANDARD PLATE",inactive; negative
O=c1c(O)c(-c2ccccc2)oc2cc(O)cc(O)c12,mutagenic call,[2],inactive; negative
same,mutagenic call,"Test System: AMES SALMONELLA TYPHIMURIUM, Strain/Indicator: TA100, Metabolic Activation: RAT LIVER S-9, AROCLOR 1254, Method: PREINCUBATION",inactive; negative
CN(C)CCNC(=O)c1cccc2cc(-c3ccccc3)oc12,mutagenic call,[6],active; positive

# Reference: PubChem BioAssay AID1259407 (Chemical Carcinogenesis Research Information System (CCRIS), 2018)
